Consider eleven compounds from patent US9931316B2 (priority 2015, dated 2018).

≈ marks a conversion by molar mass, not a printed value. Where two headings read alike, the source gives them in different places.

One series relates to Polio. Format: cell-based, poliovirus. The settings on record: Polio primary, SI50 = CC50/EC50.
The subject of series [1] is Mycobacterium tuberculosis. The settings on record: Hwang et al., J. Nat. Prod. 76: 1916-1922 (2013); cited from earlier work.
For a further series, the system named is Ebola. Format: cell-based, Ebola virus. The settings on record: SI50 = CC50/EC50.
For series [2], the system named is Flu A (H5N1) Vietnam/1203/2004H. In words: microbe, parasite or virus in culture. The class given is cell-based, Influenza A.
Series [3] deals with Flu A (H3N2) Wisconsin/67/2005. In words: microbe, parasite or virus in culture. Format: cell-based, Influenza A. The note with it: for Cntrl SI: Ribavirin control, Flu A (H3N2).
The next series relates to Flu B Shanghai/361/02. Kind of series: Influenza B antiviral assay in MDCK cells (BioShield, NIH contract labs). Format: cell-based. The settings on record: for EC50: Influenza B virus, read-out: Cntrl EC50; for EC50 / Cntrl SI: Ribavirin control, Flu B. The text has this:
Following the Project BioShield Act of 2004, Fungi Perfecti, LLC submitted over 200 hot water fruitbody and aqueous ethanolic extracts of the in vitro grown mycelia of mushroom species and strains within to the BioShield BioDefense Program administered by the U.S. Army Medical Research Institute of Infectious Diseases ([…]) and the National Institutes of Health (NIH). Submitted samples were screened for antiviral activity coordinated through the Southern Research Institute (SRI). From the more than 200 samples the inventor provided to BioShield, 2,392 antiviral assays were performed on behalf of the inventor; 1,042 of which were influenza tests.
The protocols for determining antiviral activity are fully described by the National Institutes of Allergy and Infectious Diseases (NIAID) by Greenstone et al., NIAID resources for developing new therapies for severe viral infections, Antiviral Res., Volume 78, Issue 1, April 2008, Pages 51-59, hereby incorporated by reference in its entirety. The influenza bioassays were conducted according to Sidwell, R W and Smee, D F, In vitro and in vivo assay systems for study of influenza virus inhibitors, Antiviral Res., October 2000, 48(1):1-16., hereby incorporated by reference in its entirety.

A further series is described as follows: in vitro. The settings on record: dog.
A further series relates to Human papillomavirus 11. Format: cell-based, human papillomavirus (HPV).
A further series has as its system Norovirus. The class given is cell-based, norovirus (Norwalk). On the set-up: unit not given beside the values.
For series [4] the following is noted: oral ingestion; cited from earlier work.
The subject of another series is HSV-1. Kind of series: microbe, parasite or virus in culture. Format: cell-based, Herpes Simplex. The note with it: Human alphaherpesvirus 1, HFF, read-out: Cntrl EC50.
Series [5] relates to laccase activity of Trametes sp. 1-62. The note with it: Terron et al. 2004; cited from earlier work.
The conditions of series [6]: within the human body; cited from earlier work.

Consider `O=c1cc(-c2ccccc2)oc2cc(O)cc(O)c12` [Chrysin], for which the SI50 entry in the series on Polio is “Polio primary: SI50 > 15 (Control pirodavir SI50 > 22)”; with Polio (listed as chrysin), above 15.

`CCOC(=O)c1c(-c2ccccc2)c2ccc(Cl)cc2oc1=O` [Ethyl 7-chloro-2-oxo-4-phenyl-2H-chromen-3-carboxylate]: the “activity against Mycobacterium tuberculosis” value in series [1] is “active”.

In the series with Ebola, `CC(=O)/C=C(O)\C=C\c1ccc(O)c(O)c1` [Hispolon] had an SI50 above 5.3. For the same compound, the “activity against Mycobacterium tuberculosis” value in series [1] is reported as “active”.

As to `NC(=O)c1ncn([C@@H]2O[C@H](CO)[C@@H](O)[C@H]2O)n1` [Ribavirin], the EC50 came out at 12 µg/mL (≈ 49.1 µM) in series [2] (Influenza A virus, H5N1, MDCK, read-out: Cntrl EC50, Ribavirin control, Neutral Red); 2 µg/mL (≈ 8.19 µM) in series [3] (Influenza A virus, H3N2, MDCK, read-out: Cntrl EC50); 7.1 µg/mL (≈ 29.1 µM) in the series on Flu B Shanghai/361/02 (MDCK, Neutral Red); 1.7 µg/mL (≈ 6.96 µM) in the series with Flu B Shanghai/361/02 (MDCK, Visual-CONF); 1.7 µg/mL (≈ 6.96 µM) in the series with Flu B Shanghai/361/02 (MDCK, Visual). Further, the “Cntrl SI” value was above 27 in [2] (Ribavirin control, Neutral Red); above 160 in [3] (Neutral Red); above 170 in [3] (Visual); above 45 with Flu B Shanghai/361/02 (Neutral Red); above 190 in the series with Flu B Shanghai/361/02 (Visual); above 190 in the series with Flu B Shanghai/361/02 (Visual-CONF). Further, the concentration for an effect of 90% (EC90) with Flu B Shanghai/361/02 (MDCK, read-out: Cntrl EC90) is 37.7 µg/mL (≈ 154 µM). The compound also showed an IC50 in the series “in vitro” above 320 µg/mL.

For `C[C@@H]1O[C@@H](OC[C@H]2O[C@@H](Oc3c(-c4ccc(O)c(O)c4)oc4cc(O)cc(O)c4c3=O)[C@H](O)[C@@H](O)[C@@H]2O)[C@H](O)[C@H](O)[C@H]1O.O` [Rutin hydrate], in the series with Human papillomavirus 11, the SI90 entry is given as “Human papillomavirus 11 primary: SI50 > 109 (Control cidofovir SI50 = 12), SI90 = 5 (Control cidofovir SI90 = 1)”.

In the series with Norovirus, `COc1cc(C(=O)O)ccc1O` [Vanillic acid] registered an SI50 of 1 and an SI90 of 1. For the same compound, the “time remaining in the blood stream post-digestion” value in series [4] was “more than 11 hours”.

Take `Nc1nc2c(ncn2COCCO)c(=O)[nH]1` [acyclovir]: the EC50 with HSV-1 came out at 0.3 µg/mL (≈ 1.33 µM).

Turning to `NC(=O)c1nc(F)c[nH]c1=O` [favipiravir], the SI50 in the series with Ebola is on record as above 10.

Take `COc1ccccc1O` [guaiacol]: in series [5], the “increase in laccase activity” value is 73 fold.

`O=C(O)/C=C/c1ccc(O)cc1` [p-coumaric acid]: in series [5], the “increase in laccase activity” value is 273 fold.

For the compound `COc1cc(C=O)ccc1O` [vanillin], in [6], the “share of vanillin metabolized into vanillic acid” value is listed as “up to 95%”.
